Molecules are shown by their SMILES.

Assay [1] has as its target T1, Carboxypeptidase B2 (Homo sapiens, UniProt Q96IY4).
T1 sequence (Q96IY4 whole entry): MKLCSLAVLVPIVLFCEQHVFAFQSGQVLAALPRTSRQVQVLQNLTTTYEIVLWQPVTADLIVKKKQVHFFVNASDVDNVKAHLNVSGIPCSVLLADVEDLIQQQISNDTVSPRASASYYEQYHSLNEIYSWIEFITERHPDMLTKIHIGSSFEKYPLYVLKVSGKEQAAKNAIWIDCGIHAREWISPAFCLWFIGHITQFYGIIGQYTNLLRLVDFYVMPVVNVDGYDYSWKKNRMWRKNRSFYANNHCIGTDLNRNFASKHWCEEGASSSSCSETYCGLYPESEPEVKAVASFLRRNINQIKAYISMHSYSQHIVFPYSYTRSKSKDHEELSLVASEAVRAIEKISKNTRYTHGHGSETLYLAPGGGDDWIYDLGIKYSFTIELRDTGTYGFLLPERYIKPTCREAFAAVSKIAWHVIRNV
Description: Inhibition of human plasma activated thrombin-activatable fibrinolysis inhibitor after 10 mins in absence of DTT.

The target in assay [2] is T2, Carboxypeptidase N catalytic chain (Homo sapiens, UniProt P15169).
T2 sequence (P15169 whole entry): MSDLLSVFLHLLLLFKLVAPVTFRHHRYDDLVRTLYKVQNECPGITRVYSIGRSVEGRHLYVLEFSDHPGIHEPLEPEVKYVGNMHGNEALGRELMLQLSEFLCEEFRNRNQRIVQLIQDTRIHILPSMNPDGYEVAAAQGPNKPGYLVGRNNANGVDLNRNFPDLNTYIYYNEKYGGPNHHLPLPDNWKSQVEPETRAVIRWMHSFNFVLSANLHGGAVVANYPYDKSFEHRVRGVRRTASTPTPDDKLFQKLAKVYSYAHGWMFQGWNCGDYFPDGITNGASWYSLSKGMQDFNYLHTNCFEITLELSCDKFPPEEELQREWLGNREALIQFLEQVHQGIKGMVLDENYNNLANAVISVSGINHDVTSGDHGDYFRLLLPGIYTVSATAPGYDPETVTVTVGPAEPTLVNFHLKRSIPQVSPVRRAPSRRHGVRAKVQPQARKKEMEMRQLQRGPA
The experiment in a line: Inhibition of human carboxypeptidase N preincubated for 10 mins followed by hippuryl-lysine substrate addition measured after 30 mins in absence of DTT.

Assay [3] concerns the target T3, Carboxypeptidase B (Sus scrofa, UniProt P09955).
T3 sequence (P09955 whole entry): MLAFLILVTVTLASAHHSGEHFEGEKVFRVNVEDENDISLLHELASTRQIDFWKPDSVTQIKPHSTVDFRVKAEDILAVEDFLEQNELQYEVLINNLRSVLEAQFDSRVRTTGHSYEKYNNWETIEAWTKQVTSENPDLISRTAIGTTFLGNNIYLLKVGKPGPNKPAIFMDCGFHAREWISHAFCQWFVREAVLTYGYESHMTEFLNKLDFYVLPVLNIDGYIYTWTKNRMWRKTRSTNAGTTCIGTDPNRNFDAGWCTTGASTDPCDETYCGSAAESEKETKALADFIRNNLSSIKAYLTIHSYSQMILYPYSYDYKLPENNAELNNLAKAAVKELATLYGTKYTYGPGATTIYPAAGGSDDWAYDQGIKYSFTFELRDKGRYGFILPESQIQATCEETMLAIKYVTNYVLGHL
The experiment in a line: Inhibition of porcine pancreas carboxypeptidase B after 10 mins in absence of DTT.

The next assay is filed under the species Homo sapiens. Description: Selectivity ratio of IC50 for human carboxypeptidase N to IC50 for human plasma activated thrombin-activatable fibrinolysis inhibitor.
The target in assay [4] is T2, Carboxypeptidase N catalytic chain. Description: Inhibition of human carboxypeptidase N preincubated for 10 mins followed by hippuryl-lysine substrate addition measured after 30 mins in presence of DTT.
Assay [5] deals with T1, Carboxypeptidase B2. Description: Inhibition of human plasma activated thrombin-activatable fibrinolysis inhibitor after 10 mins in presence of DTT.
Assay [6] addresses T3, Carboxypeptidase B. Description: Inhibition of porcine pancreas carboxypeptidase B after 10 mins in presence of DTT.

Usually IC50 stands for the midpoint of a concentration-inhibition curve. Turning to `CCC(=O)[Se]CC(Cc1cnc(N)c(Cl)c1)C(=O)O` (racemic), the IC50 against Carboxypeptidase B2 [1] is 370 µM; in assay [2], more than 380 µM; at Carboxypeptidase B [3] it was 2500 nM; in assay [4], more than 380 µM; on Carboxypeptidase B2 [5] it was 1.5 nM; at Carboxypeptidase B [6] it was 29 nM. The Ratio IC50 in the assay listed under Homo sapiens is more than 250000.

For the origin of these results see ChEMBL document CHEMBL4118241, “Structural basis for the selective inhibition of activated thrombin-activatable fibrinolysis inhibitor (TAFIa) by a selenium-containing inhibitor with chloro-aminopyridine as a basic group” (Bioorg Med Chem Lett, 2018).
